# Measured values taken from PubChem BioAssay (NCI).
#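 All cell lines were grown in 96-well plates and treated with compound for 48 hours. At the GI50, growth is halved. TGI: total growth inhibition.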
# Experiments:
# Assay in all cases: NCI tumour cell line growth inhibition, 48 h
# [1] = test system: MOLT-4 leukemia
# [2] = test system: SN12C renal
# [3] = test system: NCI-H226 lung
# [4] = test system: EKVX NSCLC
# [5] = test system: HOP-62 NSCLC
# [6] = test system: MALME-3M melanoma
# [7] = test system: T-47D breast
# [8] = test system: RXF 393 renal
# [9] = test system: SNB-19 CNS
# [10] = test system: MDA-MB-435
# [11] = test system: SF-268 CNS
# [12] = test system: OVCAR-8 ovarian
# [13] = test system: COLO 205 colon
# [14] = test system: UACC-257 melanoma
# [15] = test system: ACHN renal
# [16] = test system: A549 NSCLC
# [17] = test system: BT-549 breast
# [18] = test system: SF-295 CNS
# [19] = test system: IGROV1 ovarian
# [20] = test system: TK-10 renal
# [21] = test system: MCF7 breast
# [22] = test system: HCC-2998 colon
# [23] = test system: SK-MEL-5 melanoma
# [24] = test system: RPMI-8226 leukemia
# [25] = test system: OVCAR-3 ovarian
# [26] = test system: DU-145 prostate
# [27] = test system: HCT-116 colon
# [28] = test system: LOX IMVI melanoma
# [29] = test system: SK-MEL-2 melanoma
# [30] = test system: OVCAR-5 ovarian
# [31] = test system: U251 CNS
# [32] = test system: 786-0 renal
# [33] = test system: SNB-75 CNS
# [34] = test system: K-562 leukemia
# [35] = test system: NCI-H460 lung
# [36] = test system: MDA-MB-231 breast
# [37] = test system: PC-3 prostate
# [38] = test system: CAKI-1 renal
# [39] = test system: M14 melanoma
# [40] = test system: HT29 colon
# [41] = test system: HS 578T breast
# [42] = test system: SF-539 CNS
# [43] = test system: OVCAR-4 ovarian
# [44] = test system: SR leukemia
# [45] = test system: SW-620 colon
# [46] = test system: SK-OV-3 ovarian
# [47] = test system: SK-MEL-28 melanoma
# [48] = test system: HL-60(TB) leukemia
# [49] = test system: NCI/ADR-RES ovarian
# [50] = test system: A498 renal
# [51] = test system: KM12 colon
# [52] = test system: UO-31 renal
# [53] = test system: UACC-62 melanoma
# [54] = test system: HCT-15 colon
# [55] = test system: NCI-H23 lung
# [56] = test system: CCRF-CEM leukemia
# [57] = test system: HOP-92 NSCLC
# [58] = test system: NCI-H522 lung
compound,measurement,setting,value
CC(=O)Oc1ccc(Nc2c3ccccc3nc3ccccc23)cc1,GI50,[1],321 nM
same,TGI,[1],> 100000 nM
same,GI50,[2],1420 nM
same,TGI,[2],10300 nM
same,GI50,[3],675 nM
same,TGI,[3],3080 nM
same,GI50,[4],3050 nM
same,TGI,[4],25300 nM
same,GI50,[5],971 nM
same,TGI,[5],3480 nM
same,GI50,[6],1310 nM
same,TGI,[6],5350 nM
same,GI50,[7],1720 nM
same,TGI,[7],7230 nM
same,GI50,[8],1080 nM
same,TGI,[8],2930 nM
same,GI50,[9],1860 nM
same,TGI,[9],11900 nM
same,GI50,[10],2170 nM
same,TGI,[10],8160 nM
same,GI50,[11],1860 nM
same,TGI,[11],12400 nM
same,GI50,[12],1070 nM
same,TGI,[12],4140 nM
same,GI50,[13],861 nM
same,TGI,[13],2330 nM
same,GI50,[14],1510 nM
same,TGI,[14],4310 nM
same,GI50,[15],382 nM
same,TGI,[15],2020 nM
same,GI50,[16],365 nM
same,TGI,[16],1870 nM
same,GI50,[17],2770 nM
same,TGI,[17],13500 nM
same,GI50,[18],914 nM
same,TGI,[18],7940 nM
same,GI50,[19],1150 nM
same,TGI,[19],6980 nM
same,GI50,[20],1680 nM
same,TGI,[20],6220 nM
same,GI50,[21],476 nM
same,TGI,[21],10100 nM
same,GI50,[22],1970 nM
same,TGI,[22],14300 nM
same,GI50,[23],984 nM
same,TGI,[23],2150 nM
same,GI50,[24],2250 nM
same,TGI,[24],23700 nM
same,GI50,[25],2140 nM
same,TGI,[25],6480 nM
same,GI50,[26],536 nM
same,TGI,[26],3000 nM
same,GI50,[27],613 nM
same,TGI,[27],4110 nM
same,GI50,[28],736 nM
same,TGI,[28],2030 nM
same,GI50,[29],1800 nM
same,TGI,[29],3790 nM
same,GI50,[30],2080 nM
same,TGI,[30],6750 nM
same,GI50,[31],1550 nM
same,TGI,[31],8850 nM
same,GI50,[32],1890 nM
same,TGI,[32],6400 nM
same,GI50,[33],544 nM
same,TGI,[33],5080 nM
same,GI50,[34],1450 nM
same,TGI,[34],> 100000 nM
same,GI50,[35],295 nM
same,TGI,[35],1300 nM
same,GI50,[36],1700 nM
same,TGI,[36],6230 nM
same,GI50,[37],2120 nM
same,TGI,[37],13300 nM
same,GI50,[38],1210 nM
same,TGI,[38],12700 nM
same,GI50,[39],1460 nM
same,TGI,[39],3700 nM
same,GI50,[40],1100 nM
same,TGI,[40],3530 nM
same,GI50,[41],435 nM
same,TGI,[41],3190 nM
same,GI50,[42],1630 nM
same,TGI,[42],6240 nM
same,GI50,[43],1740 nM
same,TGI,[43],5930 nM
same,GI50,[44],355 nM
same,TGI,[44],> 100000 nM
same,GI50,[45],747 nM
same,TGI,[45],2580 nM
same,GI50,[46],1470 nM
same,TGI,[46],5910 nM
same,GI50,[47],1580 nM
same,TGI,[47],3920 nM
same,GI50,[48],705 nM
same,TGI,[48],6140 nM
same,GI50,[49],2250 nM
same,TGI,[49],12100 nM
same,GI50,[50],322 nM
same,TGI,[50],1880 nM
same,GI50,[51],1880 nM
same,TGI,[51],10500 nM
same,GI50,[52],693 nM
same,TGI,[52],2590 nM
same,GI50,[53],1100 nM
same,TGI,[53],2610 nM
same,GI50,[54],1130 nM
same,TGI,[54],3400 nM
same,GI50,[55],1170 nM
same,TGI,[55],2980 nM
CCN(CC)CCOc1ccc(/C(=C(\C)c2ccc(F)c(OC)c2)c2ccc(Cl)cc2)cc1,GI50,[1],2490 nM
same,TGI,[1],6860 nM
same,GI50,[2],2380 nM
same,TGI,[2],4640 nM
same,GI50,[3],2530 nM
same,TGI,[3],5140 nM
same,GI50,[4],2460 nM
same,TGI,[4],5390 nM
same,GI50,[5],2510 nM
same,TGI,[5],4990 nM
same,GI50,[6],2090 nM
same,TGI,[6],4700 nM
same,GI50,[7],2410 nM
same,TGI,[7],5860 nM
same,GI50,[8],2180 nM
same,TGI,[8],4360 nM
same,GI50,[9],2830 nM
same,TGI,[9],5170 nM
same,GI50,[10],2430 nM
same,TGI,[10],4610 nM
same,GI50,[56],2960 nM
same,TGI,[56],8550 nM
same,GI50,[11],2690 nM
same,TGI,[11],5820 nM
same,GI50,[57],1300 nM
same,TGI,[57],3680 nM
same,GI50,[12],2580 nM
same,TGI,[12],5370 nM
same,GI50,[13],1820 nM
same,TGI,[13],4510 nM
same,GI50,[14],2180 nM
same,TGI,[14],4670 nM
same,GI50,[15],2700 nM
same,TGI,[15],5310 nM
same,GI50,[16],2610 nM
same,TGI,[16],5630 nM
same,GI50,[17],2670 nM
same,TGI,[17],5130 nM
same,GI50,[18],2610 nM
same,TGI,[18],4980 nM
same,GI50,[19],2450 nM
same,TGI,[19],5400 nM
same,GI50,[20],2560 nM
same,TGI,[20],5310 nM
same,GI50,[21],2170 nM
same,TGI,[21],4740 nM
same,GI50,[22],2170 nM
same,TGI,[22],4360 nM
same,GI50,[23],2810 nM
same,TGI,[23],5210 nM
same,GI50,[24],2600 nM
same,TGI,[24],6300 nM
same,GI50,[25],2260 nM
same,TGI,[25],4600 nM
same,GI50,[26],2510 nM
same,TGI,[26],5280 nM
same,GI50,[27],2240 nM
same,TGI,[27],4860 nM
same,GI50,[28],2460 nM
same,TGI,[28],4660 nM
same,GI50,[29],2800 nM
same,TGI,[29],5510 nM
same,GI50,[30],2400 nM
same,TGI,[30],4830 nM
same,GI50,[31],2230 nM
same,TGI,[31],4740 nM
same,GI50,[32],2700 nM
same,TGI,[32],5110 nM
same,GI50,[33],2020 nM
same,TGI,[33],4840 nM
same,GI50,[34],855 nM
same,TGI,[34],6000 nM
same,GI50,[35],2070 nM
same,TGI,[35],4240 nM
same,GI50,[36],2540 nM
same,TGI,[36],4800 nM
same,GI50,[37],2110 nM
same,TGI,[37],4620 nM
same,GI50,[38],2420 nM
same,TGI,[38],4610 nM
same,GI50,[39],2810 nM
same,TGI,[39],5640 nM
same,GI50,[40],582 nM
same,TGI,[40],2870 nM
same,GI50,[41],2420 nM
same,TGI,[41],5840 nM
same,GI50,[42],2450 nM
same,TGI,[42],4740 nM
same,GI50,[43],2100 nM
same,TGI,[43],4450 nM
same,GI50,[44],2010 nM
same,TGI,[44],6910 nM
same,GI50,[45],2120 nM
same,TGI,[45],4280 nM
same,GI50,[46],2970 nM
same,TGI,[46],5730 nM
same,GI50,[47],2440 nM
same,TGI,[47],4710 nM
same,GI50,[48],2690 nM
same,TGI,[48],6430 nM
same,GI50,[49],2360 nM
same,TGI,[49],4690 nM
same,GI50,[51],2270 nM
same,TGI,[51],4730 nM
same,GI50,[58],2730 nM
same,TGI,[58],5790 nM
same,GI50,[52],1890 nM
same,TGI,[52],3960 nM
same,GI50,[53],2710 nM
same,TGI,[53],5060 nM
same,GI50,[54],1080 nM
same,TGI,[54],3390 nM
same,GI50,[55],2390 nM
same,TGI,[55],4970 nM
